Laboratory results taken from patent US9962420B2, “Compositions and methods for treating diabetes, fatty liver, cardiopathies, insulin resistance, carbohydrate and fat metabolism” (VALBIOTIS, priority 2014, dated 2018).
Where two headings read alike, the source gives them in different places.

How the values were obtained:
db/db mice [1] = assay: Fasting glycemia (Tests A); assay type: in vivo; conditions: Colby method
Experimental: (§3) The experiments were performed on db/db mice. db/db mice have a mutation of the leptin receptors inducing a cell signaling dysfunction of the latter. […] These mice are insulin resistant, hypertriglyceridemic and glucose-intolerant.
(§4) The evaluations presented were performed just before the supplementation (t=0) and at the end of supplementation (t=8 weeks).

db/db mice [2] = assay: Oral test of carbohydrate tolerance, starch force-feeding (Tests A); assay type: in vivo; conditions: Colby method
Experimental: The experiments were performed on db/db mice. db/db mice have a mutation of the leptin receptors inducing a cell signaling dysfunction of the latter. The leptin receptors are highly expressed in the hypothalamus. Mice having a mutation of these receptors cannot efficiently regulate their energy stores. […] These mice are insulin resistant, hypertriglyceridemic and glucose-intolerant. They constitute a pertinent and predictive model especially for studying insulin sensitivity, triglyceridemia, type 2 diabetes and one of its complications, non-alcoholic steatohepatitis (NASH) (Aileen J F King Br J Pharmacol 2012; 166(3):877-894; Sanches S C et al. Biomed Res Int 2015).
The experimental time was nine weeks with a “run-in” of one week followed by eight weeks of supplementation with the plant extracts and a composition X. The male mice were ten weeks old at the start of the treatment.
Nine compositions X were tested. […]
The experimental evaluations focused especially on: • Measurement of the body mass; • Measurement of the fasting glycemia; • The change in glycemia during an oral test of carbohydrate tolerance. After force-feeding with starch (3 g/kg) in the fasted state, the change in glycemia in response to starch was measured in the tail by biopsy just before the force-feeding (t0) and then after 30, 60, 90 and 120 minutes. The area under the curve (AUC) was calculated. […]

db/db mice [3] = assay: Body mass (Tests A); assay type: in vivo; conditions: after eight weeks in feed
Experimental: as §3, §4

db/db mice [4] = conditions: highest dose, same model of db/db mice and similar experimental design; cited from earlier work
db/db mice [5] = assay: Body mass, fat mass and lean mass by MRI (Tests B); assay type: in vivo; conditions: six weeks in feed, mean ± SEM
From the text: (§1) Using this predictive model of diabetic mice and incorporating composition C10 directly into the rodents' feed (1% Chrysanthellum indicum, 1% Cynara scolymus, 0.1% Vaccinium myrtillus, 0.001% Piper nigrum and 0.6% Olea europaea of the feed), this makes it possible to ensure its “multi-target” efficacy and its large-scale use, since intravenous or intraperitoneal injections are limited to a small number of people, given their mode of administration.
(§2) The experimental time was seven weeks with a “run-in” of one week followed by six weeks of supplementation with composition C10. The male mice were six weeks old at the start of the treatment. The evaluations were made just before the supplementation (t=0), weekly for certain parameters, and at the end of supplementation (t=6 weeks). […]

db/db mice [6] = assay: Fasting glycemia (Tests B); assay type: in vivo; conditions: six weeks in feed, mean ± SEM
From the text: as §1, §2

db/db mice [7] = assay: Glycated hemoglobin HbA1c (Tests B); assay type: in vivo; conditions: six weeks in feed, mean ± SEM
From the text: as §1, §2

db/db mice [8] = assay: Insulin sensitivity test (Tests B); assay type: in vivo; conditions: six weeks in feed, mean ± SEM
Experimental: For compositions C7 to C9, an insulin sensitivity test was also performed. […] The change in glycemia in response to the insulin injection was measured in the tail by biopsy just before the injection (t0) and then after 30, 60, 90 and 120 minutes. The area under the curve (AUC) was calculated. A decrease in the AUC reflects a better response to the insulin injection and thus an improvement in the insulin sensitivity. Conversely, an increase in the AUC reflects poorer insulin sensitivity and thus insulin resistance.
as §1, §2

db/db mice [9] = assay: Hepatic and serum triglycerides, serum HDL cholesterol (Tests B); assay type: in vivo; conditions: six weeks in feed, mean ± SEM
From the text: The experimental time was seven weeks with a “run-in” of one week followed by six weeks of supplementation with composition C10. The male mice were six weeks old at the start of the treatment. The evaluations were made just before the supplementation (t=0), weekly for certain parameters, and at the end of supplementation (t=6 weeks).
The experimental evaluations related especially to: • Measurement of the feed intake (t1, t2, t3, t4 and t5 weeks); • Measurement of the body mass (t0, t1, t2, t3, t4, t5, t6 weeks); • Measurement of the fat mass and lean mass by MRI (magnetic resonance imaging; t0 and t6 weeks); • Measurement of the fasting glycemia (t0, t1, t2, t3, t4, t5, t6 weeks); • Measurement of the glycated hemoglobin (HbA1c; t6 weeks); • The insulin sensitivity (test identical to that performed in Tests A; t0 and t6 weeks); • The carbohydrate tolerance (test identical to that performed in Tests A; t0 and t6 weeks); • Measurement of the hepatic and serum triglycerides (t6 weeks); • Measurement of the serum HDL cholesterol (t6 weeks).

[10] = p<0.01; cited from earlier work
[11] = molecular target: T1, HMG-CoA reductase (Catalytic domain of the human enzyme, recombinant GST fusion protein expressed in E. Coli) (Homo sapiens, UniProt P04035); assay: Test of inhibition of HMG-CoA reductase; assay type: biochemical; conditions: concentration of sample set at 60 μg/mL
T1 construct: (Catalytic domain of); GST; purchased Sigma
T1 sequence (P04035 340-888 limits assumed): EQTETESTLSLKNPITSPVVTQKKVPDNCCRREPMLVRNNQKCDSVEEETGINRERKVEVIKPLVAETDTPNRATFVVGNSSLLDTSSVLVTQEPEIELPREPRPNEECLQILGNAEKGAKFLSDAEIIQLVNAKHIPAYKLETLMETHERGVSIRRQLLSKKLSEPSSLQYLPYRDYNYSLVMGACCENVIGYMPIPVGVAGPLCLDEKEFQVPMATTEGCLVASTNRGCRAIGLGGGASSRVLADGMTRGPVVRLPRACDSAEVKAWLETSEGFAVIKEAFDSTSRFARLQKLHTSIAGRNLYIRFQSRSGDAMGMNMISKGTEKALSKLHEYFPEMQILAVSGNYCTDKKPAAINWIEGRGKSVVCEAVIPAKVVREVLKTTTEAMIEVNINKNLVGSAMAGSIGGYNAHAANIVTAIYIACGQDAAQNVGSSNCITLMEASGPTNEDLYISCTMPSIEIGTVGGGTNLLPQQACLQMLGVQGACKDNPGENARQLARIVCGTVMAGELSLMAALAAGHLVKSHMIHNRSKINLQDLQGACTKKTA
Experimental: The molecules were diluted either in 90/10 (v/v) ultra-pure water/DMSO or in 50/50 (v/v) ultra-pure water/ethanol.
The reaction mechanism is as follows: HMG-CoA+2NADPH+2H^+ ? mevalonate+2NADP^++CoA-SH
Disappearance of the substrate NADPH (absorbing at 340 nm) is thus monitored over time.
In a first stage, the solutions need to be prepared from the Sigma® kit: • the 5× buffer supplied must be diluted to a concentration of 1× in ultra-pure water; • the NADPH is dissolved by adding 1× buffer, and then distributed in 100 μL tubes; • the starting enzyme solution is distributed in 25 μL aliquots.
The manipulations were performed directly in 96-well microplates (NUNC96 or [sequence]96). […]
After preparing the plate, the kinetic monitoring was performed in a microplate reader (BMG Labtech) over 16 minutes, 25 seconds, with values taken every 25 seconds at λ=340 nm, i.e. a total of 40 cycles. From this, the percentages of inhibition could be calculated.
In general, irrespective of the test, for a given concentration of an inhibitor, a curve of equation: absorbance=f(time) (in minutes) was prepared. […]
Depending on the types of tests, the percentages of inhibition of the various enzymes were calculated via various methods: • for the tests for inhibition of HMG-CoA reductase and of α-glucosidases, the calculation formula is identical: […]

O=C(/C=C/C=C/c1ccc2c(c1)OCO2)N1CCCCC1 [Composition C5, piperine]
Observed degree of efficacy (in % of the control group), fasting glycemia after eight weeks of treatment (db/db mice [1]): −13.3% | Observed degree of efficacy (in % of the control group), oral test of carbohydrate tolerance, AUC (week 8 − week 0) (db/db mice [2]): −82.3% | Body mass (mean ± SEM) (db/db mice [3]): 32.7 ± 1.5 g

CSc1ccc(C(=O)/C=C/c2cc(C)c(OC(C)(C)C(=O)O)c(C)c2)cc1 [GFT 505, Elafibranor]
HbA1c (db/db mice [4]): 6%

CN(C)C(=N)N=C(N)N [Metformin, metformin]
Body mass (db/db mice [5]): 40.8 ± 2.1 g | Fasting glycemia (db/db mice [6]): 474 ± 24 mg/dL | HbA1c (db/db mice [7]): 7.59 ± 0.24% | Area under the curve measured during an test of insulin sensitivity (AUC) (db/db mice [8]): 32778 ± 3166 mg·min/dL | Serum triglycerides (db/db mice [9]): 256.23 ± 28.19 mg/dL | HDL cholesterol (db/db mice [9]; serum): 99.21 ± 6.03 mg/dL

CC[C@H]1[C@@H](O)[C@@H]2[C@H](CC[C@]3(C)[C@@H]([C@H](C)CCC(=O)O)CC[C@@H]23)[C@@]2(C)CC[C@@H](O)C[C@@H]12 [OCA, obeticholic acid]
Reduction of circulating HDL cholesterol [10]: -0.2 g/L

CC[C@H](C)C(=O)O[C@H]1C[C@H](O)C=C2C=C[C@H](C)[C@H](CC[C@@H](O)C[C@@H](O)CC(=O)O)[C@H]21 [Pravastatin]
% of inhibition HMG-CoA reductase [11]: 100% | inhibition at 60 µg/mL [11]: 100%
